Measured values: article PMC5693604 (Cell chemical biology, 2017)

Columns and labels:
Assay type in all cases: cell-based
[1] = molecular target: T1, CHEK2 (Homo sapiens, UniProt O96017); assay: competitive gel-based ABPP with probe […] in HEK293T cells
[2] = molecular target: T2, NT5DC1 (5'-Nucleotidase-Domain Containing 1) (Homo sapiens, UniProt Q5TFE4); assay: as above
T2 sequence (Q5TFE4 1-455): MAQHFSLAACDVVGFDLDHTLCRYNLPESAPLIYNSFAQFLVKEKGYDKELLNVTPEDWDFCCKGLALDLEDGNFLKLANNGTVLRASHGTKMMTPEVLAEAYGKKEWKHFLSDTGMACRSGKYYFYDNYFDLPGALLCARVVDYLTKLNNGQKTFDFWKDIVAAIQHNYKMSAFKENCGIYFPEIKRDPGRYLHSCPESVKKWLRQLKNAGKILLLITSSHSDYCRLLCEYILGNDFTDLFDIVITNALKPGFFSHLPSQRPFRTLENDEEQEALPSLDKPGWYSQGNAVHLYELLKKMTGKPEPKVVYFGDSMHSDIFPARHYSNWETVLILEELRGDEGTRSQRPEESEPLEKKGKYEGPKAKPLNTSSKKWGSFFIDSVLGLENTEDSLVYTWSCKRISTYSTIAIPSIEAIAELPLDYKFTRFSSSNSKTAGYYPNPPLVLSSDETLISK

[3] = molecular target: T1, CHEK2; assay: FRET Z'-LYTE kinase assay

T1 sequence (O96017 whole entry): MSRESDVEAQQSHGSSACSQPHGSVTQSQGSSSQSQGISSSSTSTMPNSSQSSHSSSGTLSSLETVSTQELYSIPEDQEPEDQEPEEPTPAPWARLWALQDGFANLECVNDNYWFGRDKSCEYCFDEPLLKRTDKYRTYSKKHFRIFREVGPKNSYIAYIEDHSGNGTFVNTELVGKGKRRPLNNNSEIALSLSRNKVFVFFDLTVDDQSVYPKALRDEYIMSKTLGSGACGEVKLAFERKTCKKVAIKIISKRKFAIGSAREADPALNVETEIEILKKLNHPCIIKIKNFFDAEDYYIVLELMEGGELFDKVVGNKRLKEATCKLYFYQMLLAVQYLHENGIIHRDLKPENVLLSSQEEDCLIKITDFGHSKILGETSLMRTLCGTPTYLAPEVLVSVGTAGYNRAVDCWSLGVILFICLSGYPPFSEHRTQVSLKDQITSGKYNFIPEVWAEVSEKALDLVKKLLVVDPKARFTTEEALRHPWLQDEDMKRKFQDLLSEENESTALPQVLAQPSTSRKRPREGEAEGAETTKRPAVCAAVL

SMILES | IC50 [1] | IC50 [2] | IC50 [3]
C=CC(=O)N[C@@H]1CN(c2nc(Nc3cn(C)nc3OC)c3ncn(C)c3n2)C[C@H]1F [compound 2, N-((3R,4R)-4-Fluoro-1-(6-((3-methoxy-1-methyl-1H-pyrazol-4-yl)amino)-9-methyl-9H-purin-2-yl)pyrrolidine-3-yl)acrylamide] | ~4000 nM | – | –
C=CC(=O)Nc1cccc(Nc2nc(Nc3ccc(N4CCN(C(C)=O)CC4)cc3OC)ncc2C(F)(F)F)c1 [compound 3, rociletinib] | – | ~360 nM | 350 nM
